The data set can be described thus: recombinant UMI read abundance after kanamycin selection (control-corrected) (log10(CPM+1)); higher = more efficient recombination; extreme values may be limits of the assay; sequences stand for … in AGTGCAGAGAAAATCGGCCAGTTTTCTCTGCCTGCAGTCCGCATGCCGTGGGACCCCTTGGGTTCTAACCTGTTGCCTAGATTTATGCAGCGGACTGCCTTTCTCCCAAAGTGATAAACCGG…AGGTTGGTTTCACT; site = the 11-nt donor. Summed up: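 The measure is log10(CPM+1) for recombinant UMIs. These were PCR-amplified across the donor–target junction and sequenced after Escherichia coli carrying a donor and donor-binding-loop pair library and a target plasmid with T7-inducible IS621 bridge recombinase was plated on IPTG (0.07 mM) plus kanamycin or unselected. CPM were averaged over two replicates and scaled by control-derived factors.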
With “CAAGCAGCATGGACCGGTTTTCCCGGTAATCCGTATTTGCC (site CAAGCAGCTTG)”, the “recombinant UMI read abundance (log10)” value came out at 1.94. The same measure for “CAAGCATCATGGACCGGTTTTCCCGGTAATCCGTATTTGCT (site CAAGCAACTAG)”: 0; for “CAAGCATCATGGACCGGTTTTCCCGGTAATCCGTATTTGCT (site CAAGCACCTAG)”: 0. Consider “CAAGCATCATGGACCGGTTTTCCCGGTAATCCGTATTTGCT (site CAAGCAGCTAG)”, for which the “recombinant UMI read abundance (log10)” value was determined as 0.

With “CAAGCATCATGGACCGGTTTTCCCGGTAATCCGTATTTGCT (site CAAGCATCTAG)”, the “recombinant UMI read abundance (log10)” value worked out at 2.05.

With “CAAGCCTCATGGACCGGTTTTCCCGGTAATCCGTATTTGTC (site CAAGCCTCTGA)”, the “recombinant UMI read abundance (log10)” value was determined as 3.3. “CAAGCGCCATGGACCGGTTTTCCCGGTAATCCGTATTTGTT (site CAAGCGCCTAA)”: the “recombinant UMI read abundance (log10)” value amounted to 2.13.

On to “CAAGCGCCATGGACCGGTTTTCCCGGTAATCCGTATTTGTT (site CAAGCGCCTCA)”, for which the “recombinant UMI read abundance (log10)” value turned out to be 0.0113. In the case of “CAAGCGCCATGGACCGGTTTTCCCGGTAATCCGTATTTGTT (site CAAGCGCCTGA)”, the “recombinant UMI read abundance (log10)” value turned out to be 1.75.

For the sequence “CAAGCGCCATGGACCGGTTTTCCCGGTAATCCGTATTTGTT (site CAAGCGCCTTA)”, the “recombinant UMI read abundance (log10)” value came to 0.663. Turning to “CAAGCTGCATGGACCGGTTTTCCCGGTAATCCGTATTTGCT (site CAAGCAGCTAG)”, the “recombinant UMI read abundance (log10)” value was 0.397.

As for “CAAGCTGCATGGACCGGTTTTCCCGGTAATCCGTATTTGCT (site CAAGCCGCTAG)”, the “recombinant UMI read abundance (log10)” value worked out at 0.95. Turning to “CAAGCTGCATGGACCGGTTTTCCCGGTAATCCGTATTTGCT (site CAAGCGGCTAG)”, the “recombinant UMI read abundance (log10)” value was 0. “CAAGCTGCATGGACCGGTTTTCCCGGTAATCCGTATTTGCT (site CAAGCTGCTAG)”: the “recombinant UMI read abundance (log10)” value is 2.42. Turning to “CAAGGAGCATGGACCGGTTTTCCCGGTAATCCGTATTTGTC (site CAAGGAGCTGA)”, the “recombinant UMI read abundance (log10)” value is 3.18. Take “CAAGTCACATGGACCGGTTTTCCCGGTAATCCGTATTTGAG (site CAAGTCACTCA)”: the “recombinant UMI read abundance (log10)” value was 1.48.

On to “CAAGTCACATGGACCGGTTTTCCCGGTAATCCGTATTTGAG (site CAAGTCACTCC)”, for which the “recombinant UMI read abundance (log10)” value is 0.563. Consider “CAAGTCACATGGACCGGTTTTCCCGGTAATCCGTATTTGAG (site CAAGTCACTCG)”, for which the “recombinant UMI read abundance (log10)” value is 1.1. For the sequence “CAAGTCACATGGACCGGTTTTCCCGGTAATCCGTATTTGAG (site CAAGTCACTCT)”, the “recombinant UMI read abundance (log10)” value amounted to 1.82.

For the sequence “CAAGTCCCATGGACCGGTTTTCCCGGTAATCCGTATTTGCT (site CAAATCCCTAG)”, the “recombinant UMI read abundance (log10)” value turned out to be 0. With “CAAGTCCCATGGACCGGTTTTCCCGGTAATCCGTATTTGCT (site CAACTCCCTAG)”, the “recombinant UMI read abundance (log10)” value is 0.843. Regarding “CAAGTCCCATGGACCGGTTTTCCCGGTAATCCGTATTTGCT (site CAAGTCCCTAG)”, the “recombinant UMI read abundance (log10)” value is 1.92. For “CAAGTCCCATGGACCGGTTTTCCCGGTAATCCGTATTTGCT (site CAATTCCCTAG)”, the “recombinant UMI read abundance (log10)” value is 0. The same measure for “CAAGTCGCATGGACCGGTTTTCCCGGTAATCCGTATTTGGG (site CAAGTCACTCC)”: 0.0586; for “CAAGTCGCATGGACCGGTTTTCCCGGTAATCCGTATTTGGG (site CAAGTCCCTCC)”: 0.554; for “CAAGTCGCATGGACCGGTTTTCCCGGTAATCCGTATTTGGG (site CAAGTCGCTCC)”: 0.908. On to “CAAGTCGCATGGACCGGTTTTCCCGGTAATCCGTATTTGGG (site CAAGTCTCTCC)”, for which the “recombinant UMI read abundance (log10)” value was 1.46.

With “CAAGTCTCATGGACCGGTTTTCCCGGTAATCCGTATTTGGG (site CAAGTCACTCC)”, the “recombinant UMI read abundance (log10)” value was determined as 0.0252. As to “CAAGTCTCATGGACCGGTTTTCCCGGTAATCCGTATTTGGG (site CAAGTCCCTCC)”, the “recombinant UMI read abundance (log10)” value stood at 0.019. On to “CAAGTCTCATGGACCGGTTTTCCCGGTAATCCGTATTTGGG (site CAAGTCGCTCC)”, for which the “recombinant UMI read abundance (log10)” value was found to be 0.02. “CAAGTCTCATGGACCGGTTTTCCCGGTAATCCGTATTTGGG (site CAAGTCTCTCC)”: the “recombinant UMI read abundance (log10)” value was found to be 0.916.

On to “CAAGTGACATGGACCGGTTTTCCCGGTAATCCGTATTTGGG (site CAAGTAACTCC)”, for which the “recombinant UMI read abundance (log10)” value came to 1.09. Regarding “CAAGTGACATGGACCGGTTTTCCCGGTAATCCGTATTTGGG (site CAAGTCACTCC)”, the “recombinant UMI read abundance (log10)” value was 0.00913. On to “CAAGTGACATGGACCGGTTTTCCCGGTAATCCGTATTTGGG (site CAAGTGACTCC)”, for which the “recombinant UMI read abundance (log10)” value amounted to 0.246.

The record behind these values is the supplement of paper PMC11208160.
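Note: IS621 bridge recombinase in Escherichia coli cells against a fixed T5 target plasmid.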
